Data as given in US20150105252A1, “SUBSTITUTED PYRAZOLES AS HERBICIDES” (E I DU PONT DE NEMOURS AND COMPANY, priority 2013, published 2015).

Legend:
[1] = system: morningglory; experiment: Test A preemergence; type: in vivo, Ipomoea spp.; conditions: preemergence
Method in brief: (§1)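 Visual injury ratings, 0 = no effect to 100 = complete control, taken about 10 days after treatment against untreated controls. Test chemicals, in a non-phytotoxic surfactant-containing solvent, were sprayed onto soil preemergence or onto one- to two-leaf plants (2–10 cm) postemergence, in loam–sand soil under greenhouse conditions.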

[2] = system: corn; experiment: Test A postemergence; type: in vivo, Zea mays
Method in brief: as §1

[3] = system: sedge, umbrella; experiment: Test B flood; type: in vivo, Cyperus difformis; conditions: 250 g ai/ha, visual rating on 0 to 100 scale (0 no effect, 100 complete control), 13 to 15 days
Method in brief: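 Plants were grown to the 2-leaf stage, then pots were flooded to 3 cm above the soil and compounds were applied directly into the paddy water. Water depth was held for the whole test; after 13 to 15 days in a greenhouse, injury was visually rated against untreated controls (0 = no effect, 100 = complete control).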

[4] = system: ryegrass, Italian; experiment: Test C preemergence; type: in vivo, Lolium multiflorum; conditions: preemergence
Method in brief: (§2)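 Postemergence values come from plants sprayed at the 1- to 4-leaf stage (2–18 cm) in peat moss–vermiculite medium; preemergence values from seeds treated in a loam–sand blend. Both evaluated visually against controls after 13–15 greenhouse days, scale 0–100.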

[5] = system: galium; experiment: Test C preemergence; type: in vivo, Galium aparine; conditions: preemergence
Method in brief: as §2

[6] = system: crabgrass, large; experiment: Test C preemergence; type: in vivo, Digitaria sanguinalis; conditions: preemergence
Method in brief: as §2

[7] = system: wheat; experiment: Test C postemergence; type: in vivo, Triticum aestivum; conditions: postemergence
Method in brief: as §2

[8] = system: foxtail, giant; experiment: Test C postemergence; type: in vivo, Setaria faberii
Method in brief: as §2

[9] = system: morningglory; experiment: Test C postemergence; type: in vivo, Ipomoea coccinea
Method in brief: as §2

[10] = system: pigweed; experiment: Test C postemergence; type: in vivo, Amaranthus retroflexus; conditions: postemergence
Method in brief: as §2

[11] = system: ragweed; experiment: Test C postemergence; type: in vivo, Ambrosia elation; conditions: postemergence
Method in brief: as §2

[12] = system: oat, wild; experiment: Test C postemergence; type: in vivo, Avena fatua
Method in brief: as §2

[13] = system: chickweed; experiment: Test C postemergence; type: in vivo, Stellaria media
Method in brief: as §2

[14] = 31 g ai/ha, visual rating, scale 0 to 100 (0 no effect, 100 complete control), 13 to 15 days
[15] = 62 g ai/ha, scale 0 to 100 (0 no effect, 100 complete control), 13 to 15 days
[16] = 125 g ai/ha, 13 to 15 days, scale 0 to 100, 0 = no effect, 100 = complete control
[17] = 250 g ai/ha, scale 0 to 100, 0 is no effect, 100 is complete control
[18] = 250 g ai/ha, scale 0 to 100 (0 no effect, 100 complete control)
[19] = Postemergence, 31 g ai/ha, visually evaluated after 13 to 15 days
[20] = postemergence, 62 g ai/ha, scale 0 to 100
[21] = postemergence, 250 g ai/ha, scale 0 to 100 (0 no effect, 100 complete control)
[22] = postemergence, 125 g ai/ha, scale 0 to 100, 0 no effect, 100 complete control
[23] = 125 g ai/ha, scale 0 to 100, 0 no effect, 100 complete control

## CCCc1cc(C(=O)NC(C)C)nn1Cc1ccnc(C(F)(F)F)c1 [Compound 186]
[1]; 125 g ai/ha, visual injury approx. 10 days after treatment
  Morningglory plant response rating (0 to 100 scale): 100
[1]; 500 g ai/ha, visual injury after approx. 10 days, 0 to 100 scale (0 no effect, 100 complete control)
  Morningglory plant response rating: 100
[2]; Postemergence, 500 g ai/ha, 0 to 100 scale (0 no effect, 100 complete control)
  Corn plant response rating: 100
[2]; postemergence, 125 g ai/ha, about 10 days, visual rating on 0 to 100 scale (0 no effect, 100 complete control)
  Corn plant response rating: 100
[3]
  Plant response rating, Sedge, Umbrella: 80
[4]; [14]
  Ryegrass, Italian plant response rating: 5
[4]; [15]
  Ryegrass, Italian plant response rating: 80
[4]; [16]
  Plant response rating, Ryegrass, Italian: 90
[4]; [17]
  Ryegrass, Italian plant response rating: 90
[5]; [14]
  Galium plant response rating: 50
[5]; [15]
  Galium plant response rating: 100
[5]; [16]
  Plant response rating, Galium: 100
[5]; [17]
  Galium plant response rating: 95
[6]; [14]
  Crabgrass, Large plant response rating: 100
[6]; [15]
  Crabgrass, Large plant response rating: 100
[6]; [16]
  Plant response rating, Crabgrass, Large: 100
[6]; [17]
  Crabgrass, Large plant response rating: 100
[7]; [18]
  Plant response rating, Wheat: 20
[7]; scale 0 to 100
  Wheat plant response rating: 15
[8]; [19]
  Plant response rating (scale of 0 to 100 where 0 is no effect and 100 is complete control), Foxtail, Giant: 5
[8]; [20]
  Foxtail, Giant plant response rating: 30
[8]; [21]
  Plant response rating, Foxtail, Giant: 75
[8]; [22]
  Plant response rating, Foxtail, Giant: 60
[9]; [19]
  Plant response rating (scale of 0 to 100 where 0 is no effect and 100 is complete control), Morningglory: 85
[9]; [20]
  Morningglory plant response rating: 85
[9]; [21]
  Plant response rating, Morningglory: 75
[9]; [22]
  Plant response rating, Morningglory: 75
[10]; 62 g ai/ha, scale 0 to 100
  Pigweed plant response rating: 70
[10]; [18]
  Plant response rating, Pigweed: 85
[10]; [23]
  Plant response rating, Pigweed: 85
[11]; [18]
  Plant response rating, Ragweed: 70
[11]; [23]
  Plant response rating, Ragweed: 55
[12]; [19]
  Plant response rating (scale of 0 to 100 where 0 is no effect and 100 is complete control), Oat, Wild: 10
[12]; [20]
  Oat, Wild plant response rating: 35
[12]; [21]
  Plant response rating, Oat, Wild: 80
[12]; [22]
  Plant response rating, Oat, Wild: 35
[13]; [19]
  Plant response rating (scale of 0 to 100 where 0 is no effect and 100 is complete control), Chickweed: 70
[13]; [20]
  Chickweed plant response rating: 80
[13]; [21]
  Plant response rating, Chickweed: 100
[13]; [22]
  Plant response rating, Chickweed: 85
